Read-outs that look alike come from different tables or passages of the source.
Legend:
[1] = tested on: Magnaporthe grisea (Pyricularia oryzae—PYRIOR); experiment: microbe, parasite or virus in culture; type: cell-based; conditions: for inhibition at 25 ppm: Pyricularia oryzae, read-out: PYRIOR in vitro Growth Inhibition
[2] = tested on: Rhizoctonia solani (RHIZSO); experiment: microbe, parasite or virus in culture; type: cell-based; conditions: for inhibition at 25 ppm: Rhizoctonia solani, read-out: RHIZSO in vitro Growth Inhibition
[3] = tested on: Mycosphaerella graminicola (Septoria tritici—SEPTTR); experiment: In vitro fungal growth inhibition, Mycosphaerella graminicola (SEPTTR); type: cell-based; conditions: for inhibition at 25 ppm: Zymoseptoria tritici, 25 ppm in growth medium, read-out: SEPTTR in vitro Growth Inhibition
[4] = tested on: Stagonospora nodorum (Leptosphaeria nodorum—LEPTNO); experiment: In vitro fungal growth inhibition, Stagonospora nodorum (LEPTNO); type: cell-based; conditions: for inhibition at 25 ppm: Leptosphaeria, 25 ppm in growth medium, read-out: LEPTNO in vitro Growth Inhibition
Ustilago maydis (USTIMA) = experiment: microbe, parasite or virus in culture; type: cell-based; conditions: for inhibition at 25 ppm: Mycosarcoma maydis, read-out: USTIMA in vitro Growth Inhibition
[5] = tested on: Phytophthora infestans (PHYTIN); experiment: microbe, parasite or virus in culture; type: cell-based; conditions: for inhibition at 25 ppm: Phytophthora infestans, read-out: PHYTIN in vitro Growth Inhibition
[6] = tested on: Phytophthora infestans—PHYTIN; experiment: whole plant or invertebrate; type: in vivo; conditions: Phytophthora, in Solanum lycopersicum, 24 h, read-out: PHYTIN in vivo 1 Day Protectant
[7] = tested on: Puccinia recondita—PUCCRT; experiment: Brown Rust of Wheat, in vivo whole plant, 24 Hour Protectant; conditions: 100 ppm spray, 24 hour protectant, wheat; for pest or weed control at 100 ppm: Puccinia, control of fungal infection vs untreated plants, read-out: PUCCRT in vivo 1 Day Protectant
Erysiphe graminis—ERYSGT = experiment: Powdery Mildew of Wheat, in vivo whole plant, 24 Hour Protectant; conditions: for pest or weed control at 100 ppm: Erysiphe, 100 ppm spray, 24 hour protectant, wheat, read-out: ERYSGT in vivo 1 Day Protectant
[8] = tested on: Leptosphaeria nodorum—LEPTNO; experiment: Glume Blotch of Wheat, in vivo whole plant, 24 Hour Protectant; conditions: 100 ppm spray, 24 hour protectant, wheat; for pest or weed control at 100 ppm: Leptosphaeria, read-out: LEPTNO in vivo 1 Day Protectant
[9] = control of fungal infection vs untreated plants
[10] = % control of fungal infection vs untreated plants

SMILES | inhibition at 25 ppm [1] [%] | inhibition at 25 ppm [2] [%] | inhibition at 25 ppm [3] [%] | inhibition at 25 ppm [4] [%] | inhibition at 25 ppm (Ustilago maydis (USTIMA)) [%] | inhibition at 25 ppm [5] [%] | pest or weed control at 100 ppm [6] [%] | pest or weed control at 100 ppm [7] [%] | pest or weed control at 100 ppm (Erysiphe graminis—ERYSGT; [9]) [%] | pest or weed control at 100 ppm [8, 9] [%] | other results
COc1ccnc(C(=O)N[C@@H]2CC3CC2[C@@H](C(=O)OCCc2ccccc2)[C@H]3C(=O)OCC(C)C)c1O (stereo partly shown) [Compound 301] | > 80 | > 80 | < 80 | > 80 | < 80 | < 80 | < 25 | 25 to 74 | < 25 | 25 to 74 | –
COc1ccnc(C(=O)N[C@H]2COC(=O)[C@H](Cc3ccccc3)[C@@H](OC(=O)C(C)C)[C@H](C)OC2=O)c1OC(=O)OCc1ccccc1 [Compound 695] | > 80 | < 80 | < 80 | < 80 | < 80 | < 80 | < 25 | – | – | – | PUCCRT in vivo 1 Day Protectant [7, 10]: + +; pest or weed control at 100 ppm (Erysiphe graminis—ERYSGT; [10]): < 25%; LEPTNO in vivo 1 Day Protectant [8, 10]: + +
COc1ccnc(C(=O)NCC(C)(C)Sc2ncc(C(F)(F)F)cc2Cl)c1O [Compound 244] | > 80 | < 80 | > 80 | > 80 | < 80 | < 80 | < 25 | < 25 | < 25 | 25 to 74 | –
COc1ccnc(C(=O)N[C@H]2CC3CC2[C@H](COCc2cccc(C(F)(F)F)c2)C3)c1O (stereo partly shown) [Compound 294] | > 80 | > 80 | > 80 | > 80 | < 80 | < 80 | < 25 | < 25 | < 25 | – | LEPTNO in vivo 1 Day Protectant [8, 9]: + +
COc1ccnc(C(=O)N[C@H]2CC[C@H]3C4CCC(CC4)[C@H]3C2=O)c1O [Compound 292] | < 80 | < 80 | < 80 | > 80 | < 80 | < 80 | < 25 | 25 to 74 | < 25 | – | LEPTNO in vivo 1 Day Protectant [8, 9]: + +
COc1ccnc(C(=O)NC2CCC[C@H]3CC(CCC=C(C)C)=CC[C@@H]23)c1O (stereo partly shown) [Compound 286] | < 80 | > 80 | < 80 | > 80 | < 80 | < 80 | < 25 | < 25 | < 25 | 25 to 74 | –
COc1ccnc(C(=O)N[C@H]2CC3CC2C[C@@H]3COCc2cccc(C(F)(F)F)c2)c1O (stereo partly shown) [Compound 296] | > 80 | > 80 | < 80 | > 80 | < 80 | < 80 | < 25 | < 25 | < 25 | 25 to 74 | –
CON=C(c1ccc(NC(=O)c2nccc(OC)c2OC(C)=O)cc1)c1cccc(C(F)(F)F)c1 [Compound 707] | – | – | – | – | – | – | – | – | – | – | PYRIOR in vitro Growth Inhibition [1]: + (key: +: at least 80% growth inhibition; −: less than 80% growth inhibition); RHIZSO in vitro Growth Inhibition [2]: − (key: +: at least 80% growth inhibition; −: less than 80% growth inhibition); SEPTTR in vitro Growth Inhibition [3]: − (key: +: at least 80% growth inhibition; −: less than 80% growth inhibition); LEPTNO in vitro Growth Inhibition [4]: − (key: +: at least 80% growth inhibition; −: less than 80% growth inhibition); USTIMA in vitro Growth Inhibition (Ustilago maydis (USTIMA)): − (key: +: at least 80% growth inhibition; −: less than 80% growth inhibition); PHYTIN in vitro Growth Inhibition [5]: − (key: +: at least 80% growth inhibition; −: less than 80% growth inhibition); ERYSGT in vivo 1 Day Protectant (Erysiphe graminis—ERYSGT): + +
COc1ccnc(C(=O)NC2CCC[C@H]3[C@H]4CC[C@H](C4)[C@@H]23)c1O (stereo partly shown) [Compound 291] | < 80 | > 80 | < 80 | > 80 | < 80 | < 80 | < 25 | < 25 | < 25 | 25 to 74 | –
COc1ccnc(C(=O)N[C@H]2COC(=O)[C@H](Cc3ccccc3)[C@@H](OC(=O)C(C)C)[C@H](C)OC2=O)c1OC(=O)c1snnc1C [Compound 676] | < 80 | < 80 | < 80 | > 80 | < 80 | < 80 | – | – | – | – | –
COCCC(=O)Oc1c(OC)ccnc1C(=O)Nc1ccc(C(=NOC)c2cccc(C(F)(F)F)c2)cc1 [Compound 708] | – | – | – | – | – | – | – | – | – | – | PYRIOR in vitro Growth Inhibition [1]: − (key: +: at least 80% growth inhibition; −: less than 80% growth inhibition); RHIZSO in vitro Growth Inhibition [2]: − (key: +: at least 80% growth inhibition; −: less than 80% growth inhibition); SEPTTR in vitro Growth Inhibition [3]: + (key: +: at least 80% growth inhibition; −: less than 80% growth inhibition); LEPTNO in vitro Growth Inhibition [4]: + (key: +: at least 80% growth inhibition; −: less than 80% growth inhibition); USTIMA in vitro Growth Inhibition (Ustilago maydis (USTIMA)): − (key: +: at least 80% growth inhibition; −: less than 80% growth inhibition); PHYTIN in vitro Growth Inhibition [5]: − (key: +: at least 80% growth inhibition; −: less than 80% growth inhibition); ERYSGT in vivo 1 Day Protectant (Erysiphe graminis—ERYSGT): + +
COc1ccnc(C(=O)N[C@@H]2CC3CC2[C@@H](c2ccccc2)[C@@H]3C(=O)OC(C)C)c1O (stereo partly shown) [Compound 300] | < 80 | > 80 | < 80 | > 80 | < 80 | < 80 | < 25 | < 25 | < 25 | 25 to 74 | –
COc1ccnc(C(=O)N[C@H]2COC(=O)[C@H](Cc3ccccc3)[C@@H](OC(=O)C(C)C)[C@H](C)OC2=O)c1OC(=O)c1ccc(OC(Cl)(Cl)Cl)cc1 [Compound 635] | < 80 | < 80 | < 80 | > 80 | < 80 | < 80 | – | – | – | – | –
COc1ccnc(C(=O)N[C@H]2COC(=O)[C@H](Cc3ccccc3)[C@@H](OC(=O)C(C)C)[C@H](C)OC2=O)c1OC(=O)c1cc(Cl)cnc1Cl [Compound 671] | < 80 | < 80 | < 80 | > 80 | < 80 | < 80 | – | – | – | – | –
COc1ccnc(C(=O)N[C@H]2COC(=O)[C@H](Cc3ccccc3)[C@@H](OC(=O)C(C)C)[C@H](C)OC2=O)c1OC(=O)c1ccc(Cl)nc1 [Compound 669] | < 80 | < 80 | < 80 | > 80 | < 80 | < 80 | < 25 | – | – | – | pest or weed control at 100 ppm (Erysiphe graminis—ERYSGT; [10]): < 25%
COc1ccnc(C(=O)N[C@H]2COC(=O)[C@H](Cc3ccccc3)[C@@H](OC(=O)C(C)C)[C@H](C)OC2=O)c1OC(=O)c1ccccc1C [Compound 628] | < 80 | < 80 | < 80 | > 80 | < 80 | < 80 | – | – | – | – | –
COc1ccnc(C(=O)N[C@H]2COC(=O)[C@H](Cc3ccccc3)[C@@H](OC(=O)C(C)C)[C@H](C)OC2=O)c1OC(=O)c1ccccc1Br [Compound 647] | < 80 | < 80 | < 80 | > 80 | < 80 | < 80 | – | – | – | – | –
COc1ccnc(C(=O)NCCCCCCCCCCC(=O)OCCSc2ccccc2)c1O [Compound 362] | > 80 | < 80 | < 80 | < 80 | < 80 | < 80 | – | – | – | – | –

— patent publication US6706740B2, “Fungicidal heterocyclic aromatic amides and their compositions, methods of use and preparation” (Dow AgroSciences LLC, priority 1999, dated 2004)
